Measurements from PubChem BioAssay (NCI).
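Five compound concentrations were applied to cells in 96-well plates for 48 hours; endpoints were derived by simple linear interpolation of the resulting dose-response curve. Abbreviation: GI50, concentration required for 50% inhibition of growth. Definition used: TGI = concentration required for complete inhibition of growth.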

Columns and labels:
Test in all cases: DTP human tumour cell line panel, 48 h
ACHN renal = system: ACHN renal
UACC-257 melanoma = system: UACC-257 melanoma
LOX IMVI melanoma = system: LOX IMVI melanoma
MDA-MB-435 = system: MDA-MB-435
MOLT-4 leukemia = system: MOLT-4 leukemia
MDA-MB-231 breast = system: MDA-MB-231 breast
MCF7 breast = system: MCF7 breast
A498 renal = system: A498 renal
HCC-2998 colon = system: HCC-2998 colon
UO-31 renal = system: UO-31 renal
SW-620 colon = system: SW-620 colon
MALME-3M melanoma = system: MALME-3M melanoma
OVCAR-8 ovarian = system: OVCAR-8 ovarian
SF-539 CNS = system: SF-539 CNS
A549 NSCLC = system: A549 NSCLC
HT29 colon = system: HT29 colon
SK-OV-3 ovarian = system: SK-OV-3 ovarian
HCT-15 colon = system: HCT-15 colon
KM12 colon = system: KM12 colon
NCI-H23 lung = system: NCI-H23 lung
BT-549 breast = system: BT-549 breast
HL-60(TB) leukemia = system: HL-60(TB) leukemia
TK-10 renal = system: TK-10 renal
OVCAR-3 ovarian = system: OVCAR-3 ovarian
HOP-62 NSCLC = system: HOP-62 NSCLC
SNB-19 CNS = system: SNB-19 CNS
COLO 205 colon = system: COLO 205 colon
U251 CNS = system: U251 CNS

**Q.** How did the GI50 (ACHN renal) turn out when Cn1cc(C2=C(c3cn(C)c4ncccc34)C(=O)NC2=O)c2ccccc21 was run?
**A.** The GI50 was 7.03 µM.

**Q.** What about the TGI (ACHN renal) of the same compound?
**A.** Its TGI is over 25 µM.

**Q.** What about the GI50 (UACC-257 melanoma) of the same compound?
**A.** The GI50 was 12.8 µM.

**Q.** And the TGI (UACC-257 melanoma)?
**A.** Its TGI is over 25 µM.

**Q.** What about the GI50 (LOX IMVI melanoma) of the same compound?
**A.** The GI50 was 6.97 µM.

**Q.** And the TGI (LOX IMVI melanoma)?
**A.** The TGI was over 25 µM.

**Q.** What about the GI50 (MDA-MB-435) of the same compound?
**A.** The GI50 was 2.2 µM.

**Q.** What about the TGI (MDA-MB-435) of the same compound?
**A.** Its TGI is over 25 µM.

**Q.** What about the GI50 (MOLT-4 leukemia) of the same compound?
**A.** Its GI50 is 7.54 µM.

**Q.** What about the TGI (MOLT-4 leukemia) of the same compound?
**A.** Its TGI is over 24 µM.

**Q.** What about the GI50 (MDA-MB-231 breast) of the same compound?
**A.** The GI50 was 12.2 µM.

**Q.** What about the TGI (MDA-MB-231 breast) of the same compound?
**A.** Its TGI is over 25 µM.

**Q.** And the GI50 (MCF7 breast)?
**A.** The GI50 was 7.66 µM.

**Q.** What about the TGI (MCF7 breast) of the same compound?
**A.** Its TGI is over 25 µM.

**Q.** What about the GI50 (A498 renal) of the same compound?
**A.** Its GI50 is 3.73 µM.

**Q.** And the TGI (A498 renal)?
**A.** Its TGI is 11 µM.

**Q.** What about the GI50 (HCC-2998 colon) of the same compound?
**A.** The GI50 was over 21.2 µM.

**Q.** What about the TGI (HCC-2998 colon) of the same compound?
**A.** The TGI was over 25 µM.

**Q.** And the GI50 (UO-31 renal)?
**A.** Its GI50 is 5.68 µM.

**Q.** What about the TGI (UO-31 renal) of the same compound?
**A.** Its TGI is over 19.8 µM.

**Q.** What about the GI50 (SW-620 colon) of the same compound?
**A.** Its GI50 is 9.7 µM.

**Q.** And the TGI (SW-620 colon)?
**A.** The TGI was over 25 µM.

**Q.** And the GI50 (MALME-3M melanoma)?
**A.** Its GI50 is 8.5 µM.

**Q.** What about the TGI (MALME-3M melanoma) of the same compound?
**A.** The TGI was 20 µM.

**Q.** What about the GI50 (OVCAR-8 ovarian) of the same compound?
**A.** Its GI50 is 10.1 µM.

**Q.** What about the TGI (OVCAR-8 ovarian) of the same compound?
**A.** The TGI was over 25 µM.

**Q.** And the GI50 (SF-539 CNS)?
**A.** Its GI50 is 5.35 µM.

**Q.** And the TGI (SF-539 CNS)?
**A.** Its TGI is 14.3 µM.

**Q.** And the GI50 (A549 NSCLC)?
**A.** The GI50 was 10.1 µM.

**Q.** And the TGI (A549 NSCLC)?
**A.** Its TGI is over 25 µM.

**Q.** And the GI50 (HT29 colon)?
**A.** Its GI50 is 6.47 µM.

**Q.** What about the TGI (HT29 colon) of the same compound?
**A.** The TGI was over 24.1 µM.

**Q.** What about the GI50 (SK-OV-3 ovarian) of the same compound?
**A.** Its GI50 is 6.97 µM.

**Q.** What about the TGI (SK-OV-3 ovarian) of the same compound?
**A.** The TGI was 21.7 µM.

**Q.** And the GI50 (HCT-15 colon)?
**A.** Its GI50 is 7.34 µM.

**Q.** And the TGI (HCT-15 colon)?
**A.** The TGI was over 25 µM.

**Q.** And the GI50 (KM12 colon)?
**A.** The GI50 was 8.59 µM.

**Q.** And the TGI (KM12 colon)?
**A.** Its TGI is over 25 µM.

**Q.** And the GI50 (NCI-H23 lung)?
**A.** The GI50 was 14.3 µM.

**Q.** And the TGI (NCI-H23 lung)?
**A.** The TGI was over 25 µM.

**Q.** What about the GI50 (BT-549 breast) of the same compound?
**A.** Its GI50 is 6.97 µM.

**Q.** And the TGI (BT-549 breast)?
**A.** The TGI was 22.2 µM.

**Q.** What about the GI50 (HL-60(TB) leukemia) of the same compound?
**A.** Its GI50 is 7.85 µM.

**Q.** What about the TGI (HL-60(TB) leukemia) of the same compound?
**A.** The TGI was 20.1 µM.

**Q.** And the GI50 (TK-10 renal)?
**A.** The GI50 was 10.8 µM.

**Q.** What about the TGI (TK-10 renal) of the same compound?
**A.** The TGI was over 25 µM.

**Q.** And the GI50 (OVCAR-3 ovarian)?
**A.** Its GI50 is 9.93 µM.

**Q.** What about the TGI (OVCAR-3 ovarian) of the same compound?
**A.** Its TGI is over 25 µM.

**Q.** And the GI50 (HOP-62 NSCLC)?
**A.** Its GI50 is 10.9 µM.

**Q.** And the TGI (HOP-62 NSCLC)?
**A.** Its TGI is over 25 µM.

**Q.** What about the GI50 (SNB-19 CNS) of the same compound?
**A.** The GI50 was 11.2 µM.

**Q.** And the TGI (SNB-19 CNS)?
**A.** The TGI was over 25 µM.

**Q.** And the GI50 (COLO 205 colon)?
**A.** Its GI50 is 5.23 µM.

**Q.** What about the TGI (COLO 205 colon) of the same compound?
**A.** Its TGI is 13 µM.

**Q.** What about the GI50 (U251 CNS) of the same compound?
**A.** Its GI50 is 7.27 µM.

**Q.** And the TGI (U251 CNS)?
**A.** Its TGI is over 25 µM.
